Legend:
Type in all cases: cell-based
[1] = test system: Fusobacterium nucleatum; test: MIC (minimum inhibitory concentration) study, 96 well microtiter plates; settings: F. nucleatum, 48 hours at 37° C., turbidity at 660 nm
Description: (§1) In vitro tests were conducted with a gram positive supragingival plaque bacterium, Streptococcus mutans. In addition, two subgingival plaque bacteria associated with oral malodor were tested, Porphyromonas gingivalis and Fusobacterium nucleatum. The MIC (Minimum Inhibitory Concentrations) study protocol is as follows. Chlorhexidine was used as a positive control and sterile water was used as a negative control. Cardamom oil was suspended in 10% methanol with 3.8% Tween 80. […] 96 well microtiter plates were used for this study. Each well contained 5×10^5 colony forming units/ml of bacteria, serially diluted agents and bacterial growth medium. All bacterial cultures were incubated at 37° C. and stationary. Bacterial growth was estimated spectrophotometrically at 660 nm, after 48 hours. The MIC for each test bacteria was defined as the minimum concentration of test compound limiting turbidity to […].

[2] = test system: Porphyromonas gingivalis; test: as above; settings: P. gingivalis, 48 hours at 37° C., turbidity at 660 nm
Description: as §1

[3] = test system: Fusobacterium nucleatum; test: MBC (minimum bactericidal concentration) determination, plating on blood agar; settings: F. nucleatum, lowest concentration killing at least 99.9% of initial inoculum, plates 48 hours at 37° C.
Description: (§2) The MBC (Minimum bactericidal concentrations) were determined using the 96 well microtiter plate serial dilutions as described above for MIC studies. Serial dilution of cultures in wells showing no visible growth were performed and 10 microliters of culture were plated in triplicate on blood agar plates. Viable colonies were scored after incubation of the plates for 48 hours at 37° C. For each test bacterium, the number of CFU/ml were determined in the initial inoculum. The MBC was defined as the lowest concentration of a test compound that killed at least 99.9% of the cells present in the initial inoculum.

[4] = test system: Porphyromonas gingivalis; test: as above; settings: P. gingivalis, lowest concentration killing at least 99.9% of initial inoculum, plates 48 hours at 37° C.
Description: as §2

[H]/N=C(\N/C(=N/[H])NCCCCCCNC(=N)NC(=N)Nc1ccc(Cl)cc1)Nc1ccc(Cl)cc1 [Cholorhexidine, Chlorhexidine]
1.25 µg/mL: MIC [1] | MIC [2] | MBC [3] | MBC [4]

— patent publication US20040253192A1, “Breath Freshening and Oral Cleansing Product Using Cardamom Oil” (priority 2002, published 2004)
